“Also recorded” adds a separate entry of the source.
Legend:
[1] = system: THP-1 macrophages; assay: Marker expression in MDA-MB-436 tumor cell-educated THP-1 macrophages; format: cell-based, human; conditions: ADU-S100 10 μM, two days; FIG. 7G
Description: Cells were cultured in a humidified incubator under 5% CO2 at 37° C. MDA-MB-436, HCC1937 and THP-1 human cell lines were obtained from ATCC, tested negative for mycoplasma, and authenticated using short tandem repeat analysis (Promega GenePrint 10 System). MDA-MB-436 and HCC1937 breast cancer cells were cultured in RPMI 1640 medium (Gibco) supplemented with 10% heat-inactivated fetal bovine serum (FBS, Gemini) and 100 μg/mL penicillin-streptomycin (Gibco). THP-1 monocytes were cultured in RPMI 1640 with 10% FBS and 0.055 mM 2-mercaptoethanol (Gibco, #21985023). To differentiate THP-1 monocytes to macrophages, cells were treated with 100 nM PMA (Sigma, #P1585) for 48 h, followed by 24 h recovery with PMA-free medium.
For flow cytometry analyses of tumor and TDLN samples, single-cell suspensions were obtained as described above (Tissue Digestion). Cells were stained in cold FACS buffer (PBS containing 0.2% BSA and 5 mM EDTA) with LIVE/DEAD Fixable Aqua Dead Cell Stain (Thermo Fisher) for 30 min on ice, followed by blocking with anti-CD16/32 (BioLegend) for 20 min on ice. […] All data were analyzed using FlowJo software. […]

[2] = system: BMDMs generated from FVB/NJ mice; assay: Polarization of mouse BMDMs cultured in PBM / PBM-R conditioned medium; format: cell-based; conditions: BMDMs in 50% PBM-R-CM; ADU-S100 10 μM or MSA-2 5 ug/ml, two days; FIG. 21B
Description: For ex vivo culture of mouse macrophages, bone marrow cells were isolated from FVB/NJ mice and cultured in DMEM containing 10% FBS, 55 μM 2-Mercaptoethanol and 20 ng/ml M-CSF. BMDMs (bone marrow derived macrophages) were harvested on day 7 and further cultured in 2.0 ml control medium (90% DMEM, 10% FBS, 55 μM 2-Mercaptoethanol and 5 ng/ml M-CSF) described above or the medium containing 50% tumor cell conditioned medium for 72 hrs before analysis. For the tumor cell conditioned medium, about 3×10^5 tumor cells were cultured in 6-well plate for 24 hrs and then treated with DMSO or olaparib. After 24 hrs incubation with DMSO or olaparib, the tumor cells were washed twice with PBS and cultured in DMEM containing 10% FBS for 48 hrs. The tumor cell conditioned medium was collected by centrifugation at 1,500 g for 5 min at 4° C. to remove all the debris and cells. For the cytokine blocking experiment, monoclonal antibodies that specific to each cytokine were added to the tumor cell conditioned medium before it was applied to culture macrophages.

[3] = system: human BMDMs; assay: Polarization of human BMDMs cultured in CM from ovarian PDXs; format: cell-based; conditions: STAT3 inhibitor-treated PDXs; FIG. 25D
Description: For ex vivo culture of human macrophages, human BMDMs were generated from bone marrow mononuclear cells (BMMs) (CAT #70001) obtained from […] Technologies. Briefly, BMMs were cultured in DMEM containing 10% FBS, 55 μM 2-Mercaptoethanol (CAT #21985023, Thermo Fisher) and 50 ng/ml M-CSF for 5-7 days with media replacement every 3 days to obtain matured macrophages (BMDMs). […] Flow cytometry analysis was preformed to analyze the phenotypes of macrophages for both mouse and human BMDMs.

[4] = system: PE tumors; assay: Flow cytometry of immune cells in PE tumors and tumor-drainage lymph nodes; format: in vivo, mouse
Description: To obtain single-cell suspension from tumor mass, tumors were excised, minced and dissociated in collagenase buffer (DMEM supplemented with 5% FBS, 10 mM HEPES [Gibco), 100 μg/mL penicillin-streptomycin, 20 μg/mL DNase I [StemCell] and 1× collagenase/hyaluronidase [StemCell]) at 37° C. for 45 min. Tumor-draining lymph nodes were isolated from tumor-bearing mice and were mashed through 70 μm strainer using plunger of a syringe to obtain single-cell suspension.
For FACS staining, tissue cells were first stained with LIVE/DEAD Fixable Aqua Dead Cell Stain (Thermo Fisher) for 30 min on ice, followed by blocking with anti-CD16/32 (BioLegend) for 20 minutes on ice. Afterwards, cells were incubated with antibodies targeting surface biomarkers in FACS buffer for 30 minutes on ice.

[5] = system: PE tumor cells; assay: CXCL10 and CCL5 expression in PE tumor cells (RT-PCR); format: cell-based, mouse; conditions: FIG. 27C
Description: (§1) Cultured cells were lysed in 1 mL TRIZOL® reagent supplied with 200 μL chloroform, after which, samples were vortexed vigorously for 15s and incubated at room temperature for 2 to 3 minutes. The samples were then centrifuged at 12000 g for 15 minutes at 4° C., and collected aqueous phase only. […] Relative mRNA levels were calculated using the […]. Mouse Actb and human GAPDH were used as endogenous controls for mouse and human samples, respectively.

[6] = system: PE tumors; assay: PE (exon19del/T790M EGFR, Trp53 loss) tumor growth in FVB mice; format: in vivo, mouse; conditions: mouse, in vivo
[7] = system: EFGR/ERK signaling pathway
[8] = system: PC9GR4; assay: CXCL10 and CCL5 expression in PC9GR4 cells (RT-PCR); format: cell-based, human; conditions: FIG. 27C
Description: as §1

Compound: Nc1ncnc2c1ncn2[C@@H]1O[C@@H]2COP(=O)([S-])O[C@@H]3[C@H](O)[C@@H](COP([O-])(=S)O[C@H]2[C@H]1O)O[C@H]3n1cnc2c(N)ncnc21.[Na+].[Na+] (some centres unmarked) [ADU-S100]
- CD86 expression [1]: significantly increased
- CD163 expression [1]: suppressed
- M1/M2 ratio [2]: significantly increased

Compound: CC(=O)c1cc2c(o1)C(=O)c1ccccc1C2=O [napabucasion]
- M2-like macrophage polarization induced by CM from DF86 and DF118 [3]: partially diminished

Compound: C=CC(=O)Nc1cc(Nc2nccc(-c3cn(C)c4ccccc34)n2)c(OC)cc1N(C)CCN(C)C [osimertinib]
- T cells or IFNg^+/TNFa^+ T cells in large PE tumors ([4]; large tumors): did not lead to increase
- tumor immune microenvironment of large PE tumors ([4]; single-agent treatment, FIG. 30B): did not significantly affect
- CD8^+ and CD4^+ T cells in tumor ([4]; small tumors, FIG. 27B): induced the recruitment of CD8^+ and CD4^+ T cells
- IFNg-positive CD8^+ and CD4^+ T cells ([4]; small tumors, FIG. 27B): increase
- expression of CXCL10 and CCL5 [5]: significantly elevated
- PE tumor growth [6]: significantly slowed PE tumor growth; also recorded: tumor regression; also recorded: only modest therapeutic effects
- growth of large PE tumors [6]: progressed through osimertinib treatment and presented growth rates comparable to control
- therapeutic effect under CD8^+ T cell depletion [6]: significantly mitigated
- activation of EFGR/ERK signaling pathway (phosphorylation of EGFR and ERK) [7]: inhibited
- expression of CXCL10 and CCL5 [8]: significantly elevated
